Laboratory results: patent US20230391714A1, “INHIBITORS OF THE INTERACTION BETWEEN TRIP8B AND HCN CHANNELS AND USES THEREOF FOR TREATING NEUROLOGICAL DISEASES AND DISORDERS” (Northwestern University, priority 2022, published 2023)
Where two headings read alike, the source gives them in different places.

How the values were obtained:
[1] = Mouse liver microsomal stability; format: in vitro ADME; details: 60-minute incubation at 37° C. with mouse liver microsomes
Excerpt: (§1) Solubility and Mouse Microsomal Stability. […] In order to improve the aqueous solubility to support additional biochemical assays we made and characterized several salt forms. The formic acid (FA) salt was recovered after reverse-phase preparative HPLC while using formic acid as a modifier. […] On stirring the free amine in 4M HCl in dioxane, the compound was converted to the HCl salt as a white solid (Scheme 1). […] As a result, the HCl-salt of NUCC-0200590 was used for biophysical assays. The inhibitor was also screened for in vitro stability towards mouse liver microsomes to evaluate its potential metabolism and suitability for future in vivo experiments. The microsomal stability was measured after a 60-minute incubation at 37° C. with mouse liver microsomes. The compound was almost completely consumed by mouse liver microsomes after a 60-minute incubation as only 3.7% of the parent compound remained.

TRIP8b-HCN1c40 = TRIP8b-HCN1c40 (Homo sapiens (Human), UniProt Q8IYB4); assay: TRIP8b-HCN1c40 AlphaScreen assay; format: binding
In short: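 GST-tagged HCN1c40 (C-terminal 40 residues, 20 nM) was incubated 3 h with 200 nM His-tagged TRIP8b(241-602) and varying compound concentrations. Anti-GST acceptor beads, then nickel chelate donor beads, were added for 1.5 h each before the AlphaScreen signal was read.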

[2] = Thermodynamic solubility in PBS; format: physicochemical; details: PBS at pH 7.4, room temperature, stirring for 16 hours; for solubility thermodynamic at 16 h: aqueous buffer, thermodynamic from solid
Excerpt: as §1

HEK293T cells = assay: Cell viability assay (alamar Blue); format: cell-based; details: 0-50 μM, 24 hours
Experimental: Cell Viability Assays. HEK293T Cells (ATCC, Manassas, Virginia) were maintained as previously described (Lyman et al., 2017b). These cells were plated at 30-50% confluence and incubated for 24 hours with the concentration of NUCC-0200590 specified in the main text. The cells were then incubated with alamar Blue assay reagent per the Manufacturer's instructions (ThermoFisher, Rockford, IL) prior to reading the plates on a plate reader.

[3] = tested on: HCN channels in CA1 pyramidal neurons; assay: Slice electrophysiology in CA1 pyramidal neurons; format: cell-based, mice; details: 15 μM
Experimental: Slice Electrophysiology. Whole cell recordings from CA1 pyramidal neurons were performed using an electrophysiology rig described previously (Zhou et al., 2013; 2015). 300 micron sagittal sections were made from male and female mice with 5 μM CGP52432, 2 μM SR-95531, and 10 μM MK-801 to block GABAB, GABAA, and NMDAR. ACSF was composed of 125 mM NaCl, 2.5 mM KCl, 25 mM NaHCO3, 1.25 mM Na2PO4, 1 mM MgCl2, 2 mM CaCl2), and 25 mM glucose while the internal solution was 115 mM K-gluconate, 20 mM KCl, 10 mM Na2Phosphocreatinine, 2 mM MgATP, and 0.3 mM NaGTP. NUCC-0200590 was incubated in the slice chamber in a subset of experiments as described in the text. Current clamp recordings were performed at a holding potential of −70 mV.

[4] = DMSO needed in PBS to see proton signals in 1H-NMR (aqueous solubility); format: physicochemical; details: PBS (pH 7.4)
Excerpt: as §1

TRIP8b and HCN1 = TRIP8b and HCN1 (Homo sapiens (Human), UniProt Q8IYB4); assay: NanoBiT live cell protein-protein interaction assay; format: cell-based; details: HEK293T cells, 30 min incubation
Experimental: NanoBiT live cell protein-protein interaction assay. HEK293T cells (obtained freshly from ATCC) were plated in DMEM (Thermo Fisher, #11965-092) with 10% FBS (Thermo Fisher, #16000-044) and Pen/Strep (Thermo Fisher #15140-122) at 1 million cells per well in 6-well tissue culture treated plates. The next day, cells were co-transfected using Lipofectamine 3000 with plasmids encoding the small Nanoluciferase fragment (SmBiT) fused to the N-terminus of full-length HCN1 (SmBiT-HCN1), and the large Nanoluciferase fragment (LgBiT) fused to the N-terminus of TRIP8b(1a-4) (LgBiT-TRIP8b). The plasmids were constructed by cloning into backbone vectors from the Promega NanoBiT MCS cloning kit #N2014. As a control for specific inhibition, other cells were co-transfected with SmBiT-PRKACA and LgBiT-PRKAR2A positive control plasmids from the kit. 24 hours post-transfection, the cells were trypsinized with TrypLE (Thermo Fisher, #12604-013), washed and suspended in phenol red-free Opti-MEM I (Thermo Fisher, #11058-021), and 25,000 cells per well were plated in white 384-well tissue culture-treated plates (Greiner #781080). […] Luminescence was generated by adding Nano-Glo live cell substrate (Promega, #N2011) and incubating for 30 minutes at 37° C. prior to detecting on a luminescent reader (Biotek Neo2).

[5] = activity ranges, read-out: TRIP8b-HCN1c40 Alphascreen IC50 activity
[6] = read-out: TRIP8b-HCN1c40 Alphascreen IC50

Sequence of TRIP8b-HCN1c40 (Q8IYB4 265-626): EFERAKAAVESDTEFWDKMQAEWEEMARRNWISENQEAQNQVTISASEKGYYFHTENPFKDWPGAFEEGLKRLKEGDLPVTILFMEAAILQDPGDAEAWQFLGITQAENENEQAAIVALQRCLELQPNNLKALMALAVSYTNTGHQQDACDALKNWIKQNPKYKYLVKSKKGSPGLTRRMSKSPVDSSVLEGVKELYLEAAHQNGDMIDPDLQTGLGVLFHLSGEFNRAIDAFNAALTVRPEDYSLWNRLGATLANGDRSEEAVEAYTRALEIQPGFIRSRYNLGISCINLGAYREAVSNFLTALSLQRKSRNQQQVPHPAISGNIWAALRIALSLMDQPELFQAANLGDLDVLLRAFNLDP
Sequence of TRIP8b and HCN1 (Q8IYB4 other isoform, or with tags, fused parts or gaps, species assumed): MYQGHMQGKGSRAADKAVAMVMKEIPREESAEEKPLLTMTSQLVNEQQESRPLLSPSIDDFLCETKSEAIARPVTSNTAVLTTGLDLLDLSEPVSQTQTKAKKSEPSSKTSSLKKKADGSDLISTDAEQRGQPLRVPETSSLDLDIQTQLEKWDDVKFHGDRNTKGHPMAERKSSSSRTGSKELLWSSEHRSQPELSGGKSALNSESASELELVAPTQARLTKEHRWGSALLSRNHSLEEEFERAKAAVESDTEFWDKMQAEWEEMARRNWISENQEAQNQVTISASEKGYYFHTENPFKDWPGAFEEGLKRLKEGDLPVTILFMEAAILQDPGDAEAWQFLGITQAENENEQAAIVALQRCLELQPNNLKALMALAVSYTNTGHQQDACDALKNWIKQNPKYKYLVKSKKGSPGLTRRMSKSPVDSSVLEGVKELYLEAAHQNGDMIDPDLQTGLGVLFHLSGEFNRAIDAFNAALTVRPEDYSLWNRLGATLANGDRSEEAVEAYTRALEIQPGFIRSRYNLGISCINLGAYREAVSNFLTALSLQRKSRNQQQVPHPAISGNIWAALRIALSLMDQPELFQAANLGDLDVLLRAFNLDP

| IC50 (TRIP8b-HCN1c40; [5]) | IC50 (TRIP8b-HCN1c40; [6]) | Structure (SMILES) | also measured |
| --- | --- | --- | --- |
| 5 to 10 µM | 8.8 µM | Cc1ccc(NC(=O)COc2ccc(-c3cccc(C)c3)cc2CN2CC[C@H](N)C2)cc1 [NUCC-0201618] | – |
| 2 to 5 µM | 4.5 µM | CC(Oc1ccc(-c2ccc(C(F)(F)F)cc2)cc1CN1CCN(C)CC1)C(=O)NCc1ccc(Cl)cc1 (centres unmarked) [NUCC-0202029] | – |
| 2 to 5 µM | 3.4 µM | Cc1ccc(-c2ccc(OC(C)C(=O)NCc3ccc(Cl)cc3)c(CN3CCN(C)CC3)c2)cc1 (centres unmarked) [NUCC-0202031] | – |

The remaining lines, values behind:

| Structure (SMILES) | IC50 (TRIP8b-HCN1c40; [5]) | IC50 (TRIP8b-HCN1c40; [6]) | also measured |
| --- | --- | --- | --- |
| CN1CCN(Cc2cc(-c3ccc(F)cc3)ccc2OCC(=O)NCc2ccc(Cl)cc2)CC1 [NUCC-0200590, N-(4-chlorobenzyl)-2-((4′-fluoro-3-((4-methylpiperazin-1-yl)methyl)-[1,1′-biphenyl]-4-yl)oxy)acetamide] | 5 to 10 µM | 5.4 µM | parent compound remained [1]: 3.7%; IC50 (TRIP8b-HCN1c40; most potent hit compound of in silico screen, read-out: IC50 value in the AlphaScreen assay): 19.9 ± 0.9 µM; thermodynamic solubility [2]: completely insoluble; viability as percentage of 0 μM control (HEK293T cells): main effect of concentration; sag ratio ([3]; Trip8b+/+ mice): 1.14±0.01; sag ratio ([3]; Trip8b−/− mice): 1.05±0.02 |
| CN1CCN(Cc2cc(-c3ccc(F)cc3)ccc2OCC(=O)NCc2ccc(Cl)cc2)CC1.O=CO [NUCC-0200590 FA salt, N-(4-chlorobenzyl)-2-((4′-fluoro-3-((4-methylpiperazin-1-yl)methyl)-[1,1′-biphenyl]-4-yl)oxy)acetamide formate] | – | – | solubility thermodynamic at 16 h [2]: 45 µM; DMSO in PBS required to see proton signals in 1H-NMR [4]: 15% |
| CN1CCN(Cc2cc(-c3ccc(F)cc3)ccc2OCC(=O)NCc2ccc(Cl)cc2)CC1.Cl [NUCC-0200590 HCl salt, N-(4-chlorobenzyl)-2-((4′-fluoro-3-((4-methylpiperazin-1-yl)methyl)-[1,1′-biphenyl]-4-yl)oxy)acetamide hydrochloride] | – | – | disruption of TRIP8b-HCN1 interaction (NanoBiT luminescence) (TRIP8b and HCN1): disrupts the interaction between fragments of TRIP8b and HCN1 in live cells; solubility thermodynamic at 16 h [2]: 252 µM |
| Cc1cccc(-c2ccc(OCC(=O)NCc3ccc(Cl)cc3)c(CN3CC[C@H](N)C3)c2)c1 [NUCC-0201625] | 5 to 10 µM | 6.1 µM | – |
